Assay [1] has as its target T1, M1 muscarinic receptor (Homo sapiens, UniProt P11229).
T1 construct: expressed in transfected cells; host or cells: CHO (M1-CHO)
T1 sequence (P11229 1-460): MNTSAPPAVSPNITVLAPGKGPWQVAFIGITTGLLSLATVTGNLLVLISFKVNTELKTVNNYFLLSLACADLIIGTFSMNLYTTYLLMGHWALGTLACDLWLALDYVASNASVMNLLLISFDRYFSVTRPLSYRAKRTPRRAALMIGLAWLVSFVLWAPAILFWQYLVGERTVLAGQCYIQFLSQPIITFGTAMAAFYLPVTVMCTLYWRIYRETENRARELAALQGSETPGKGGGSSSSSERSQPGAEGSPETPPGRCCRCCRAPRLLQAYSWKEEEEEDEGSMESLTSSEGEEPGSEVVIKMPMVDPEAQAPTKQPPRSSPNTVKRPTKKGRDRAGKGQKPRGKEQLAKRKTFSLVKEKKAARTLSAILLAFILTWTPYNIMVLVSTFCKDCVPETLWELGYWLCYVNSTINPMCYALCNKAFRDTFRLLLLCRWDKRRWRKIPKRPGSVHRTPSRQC
Kind of assay: Functional mobilization of intracellular calcium (FLIPR) in M1-CHO cells. The format is cell-based. In short, it runs like this: (§1)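 Intracellular calcium rise is measured by FLIPR fluorescence over 60 sec in CHO cells carrying human M1 or M4 receptors. Compounds are tested alone as agonists, or pre-incubated 15 min (or co-applied) ahead of carbachol at its EC80 to detect inhibition.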
For orientation: Calcium flux is commonly read through the fluorescence of an indicator in the cells.

Assay [2] addresses T2, M4 muscarinic receptor (Homo sapiens, UniProt P08173).
T2 construct: expressed in transfected cells; host or cells: CHO (M4-CHO)
T2 sequence (P08173 1-479): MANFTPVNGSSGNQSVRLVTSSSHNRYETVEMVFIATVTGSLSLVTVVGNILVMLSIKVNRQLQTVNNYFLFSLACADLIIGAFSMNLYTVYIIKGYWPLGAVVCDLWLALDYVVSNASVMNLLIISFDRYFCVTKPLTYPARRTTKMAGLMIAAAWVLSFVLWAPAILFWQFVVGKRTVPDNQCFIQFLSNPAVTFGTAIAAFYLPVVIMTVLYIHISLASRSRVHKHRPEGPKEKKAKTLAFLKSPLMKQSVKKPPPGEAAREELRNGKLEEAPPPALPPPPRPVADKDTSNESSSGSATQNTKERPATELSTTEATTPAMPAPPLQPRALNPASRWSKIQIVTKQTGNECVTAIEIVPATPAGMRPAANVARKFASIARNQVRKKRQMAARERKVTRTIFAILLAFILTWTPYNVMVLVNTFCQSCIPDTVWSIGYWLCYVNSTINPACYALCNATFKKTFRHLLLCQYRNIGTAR
Nature of the assay: Functional mobilization of intracellular calcium (FLIPR) in M4-CHO cells. The format is cell-based. The gist of the method:
as §1

The mark [3] stands for this setting: Table 4, 100% efficacy is the maximum response obtained with the Carbachol control.
Setting [4] is: Table 4, modulating M1 receptor.
Where [5] appears, read: Table 4, modulating M4 receptor.
Setting [6] is: M1 receptor, calcium mobilization.
Where [7] appears, read: M1 receptor, calcium mobilization, read-out: M1 Efficacy.
[8] abbreviates: M4 receptor, calcium mobilization.
The mark [9] stands for this setting: M4 receptor, calcium mobilization, read-out: M4 Efficacy.
The mark [10] stands for this setting: 100% efficacy is the maximum response obtained with the Carbachol control, Table 5.

Where two headings read alike, the source gives them in different places.

`CN(C)C(=O)N1CC2(CCN(C3CCN(C(=O)c4ccccn4)CC3)CC2)c2cc(F)ccc21` [compound 718]: the Emax in assay [1] (setting [3]) and in assay [2] (setting [3]) was under 25% each time. For the same molecule, in assay [1] (setting [4]), the “M1 Activity” value is “x (activity was measured to be greater than 5.0 μM)”. Further, in assay [2] (setting [5]), the “M4 Activity” value was “x (activity was measured to be greater than 5.0 μM)”.
With `CC(=O)N1CC2(CCN(C3CC4CCC(C3)N4C(=O)O[C@H]3CCOC3)CC2)c2cc(F)ccc21` (some centres unmarked) [compound 47], the “M1 Activity” value in assay [1] (setting [6]) was “xxx (activity was measured to be less than 0.1 μM)”. The Emax in assay [1] (setting [7]) and in assay [2] (setting [9]) was 65 to 85% throughout. In assay [2] (setting [8]), the “M4 Activity” value was “xx (activity was measured to be between 0.1 μM and 1.0 μM)”.
For the molecule `COCCOC(=O)N1C2CCC1CC(N1CCC3(CC1)CN(C(=O)O[C@@H]1CCOC1)c1ccc(F)cc13)C2` (some centres unmarked) [compound 216], in assay [1] (setting [6]), the “M1 Activity” value is “xxx (activity was measured to be less than 0.1 μM)” and the “M1 Efficacy” value is “xxx (efficacy was calculated to be greater than 85%)”. In assay [2] (setting [8]), the “M4 Activity” value was “x (activity was measured to be greater than 1.0 μM)” and the “M4 Efficacy” value is recorded as “x (efficacy was calculated to be less than 65%)”.
For the molecule `CN(C)C(=O)N1CC2(CCN(C3CCN(C(=O)CC#N)CC3)CC2)c2cc(F)ccc21` [compound 729], the Emax in assay [1] (setting [3]) and in assay [2] (setting [3]) was under 25% in each case. For the same molecule, the “M1 Activity” value in assay [1] (setting [4]) was “x (activity was measured to be greater than 5.0 μM)”. Further, the “M4 Activity” value in assay [2] (setting [5]) was “x (activity was measured to be greater than 5.0 μM)”.
As to `CN(C)C(=O)CN1CC2(CCN(C[C@H]3C[C@H]4C=CC3C4)CC2)c2cc(F)ccc21` [compound 734], the Emax in assay [1] (setting [3]) and in assay [2] (setting [3]) was 25 to 100% in each case. In addition, in assay [1] (setting [4]), the “M1 Activity” value is “xxx (activity was measured to be less than 2.0 μM)”. The “M4 Activity” value in assay [2] (setting [5]) is reported as “xxx (activity was measured to be less than 2.0 μM)”.
Take `CN(C)C(=O)N1CC2(CCN(C3CCN(C(=O)OCCF)CC3)CC2)c2cc(F)ccc21` [compound 48]: the “M1 Activity” value in assay [1] (setting [6]) was “xxx (activity was measured to be less than 0.1 μM)”. Further, the Emax is over 85% in assay [1] (setting [7]) and 65 to 85% in assay [2] (setting [9]). In assay [2] (setting [8]), the “M4 Activity” value was “xx (activity was measured to be between 0.1 μM and 1.0 μM)”.
Consider `CCCOC(=O)N1C2CCC1CC(N1CCC3(CC1)CN(C(=O)N(C)C)c1ccc(F)cc13)C2` (centres unmarked) [compound 360], for which the “M1 Activity” value in assay [1] (setting [6]) was “xx (activity was measured to be between 0.1 μM and 1.0 μM)”. Further, the Emax was 65 to 85% in assay [1] (setting [7]) and under 65% in assay [2] (setting [9]). The “M4 Activity” value in assay [2] (setting [8]) is “x (activity was measured to be greater than 1.0 μM)”.
For the molecule `CCOC(=O)N1CCC(CN2CCC3(CC2)COc2ccc(F)cc23)CC1` [compound 107], in assay [1] (setting [6]), the “M1 Activity” value was “xxx (activity was measured to be less than 0.1 μM)”. Moreover, the Emax was 65 to 85% in assay [1] (setting [7]) and under 65% in assay [2] (setting [9]). In assay [2] (setting [8]), the “M4 Activity” value is reported as “x (activity was measured to be greater than 1.0 μM)”.
Turning to `CN(C)C(=O)N1CC2(CCN(C3CCN(c4cnccn4)CC3)CC2)c2cc(F)ccc21` [compound 1031], the Emax in assay [1] (setting [10]) and in assay [2] (setting [10]) was 25 to 100% throughout. Besides, the EC50 (usually the concentration giving half of the maximal effect) was under 2000 nM in assay [1] (CHO cells expressing M1, calcium mobilization, Table 5) and under 2000 nM in assay [2] (CHO cells expressing M4, calcium mobilization, Table 5).
Turning to `CCOC(=O)N1CCC(CN2CCC3(CC2)C(=O)Nc2ccccc23)CC1` [compound 319], the “M1 Activity” value in assay [1] (setting [6]) was “xx (activity was measured to be between 0.1 μM and 1.0 μM)”. For the same molecule, the Emax in assay [1] (setting [7]) and in assay [2] (setting [9]) was under 65% each time. For the same molecule, the “M4 Activity” value in assay [2] (setting [8]) is reported as “x (activity was measured to be greater than 1.0 μM)”.
Turning to `CC(C)(C)COC(=O)N1C2CCC1CC(N1CCC3(CC1)COc1ccc(F)cc13)C2` (centres unmarked) [compound 247], the “M1 Activity” value in assay [1] (setting [6]) is “xx (activity was measured to be between 0.1 μM and 1.0 μM)”. Besides, the figures for the Emax in assay [1] (setting [7]) and in assay [2] (setting [9]) were 65 to 85% and over 85%, respectively. Besides, the “M4 Activity” value in assay [2] (setting [8]) is recorded as “x (activity was measured to be greater than 1.0 μM)”.

For the origin of these results see patent US7786141B2 (Vertex Pharmaceuticals Incorporated, priority 2004, dated 2010).
